Measurements from ChEMBL document CHEMBL1148300, “Synthesis and evaluation of oxazaborolidines for antibacterial activity against Streptococcus mutans” (2004).
≈ marks a conversion by molar mass, not a printed value.

System: Streptococcus mutans
Experiment: Minimal Inhibitory Concentration ofcompound against Streptococcus mutans
Format: functional

SMILES	MIC
CC1(C)COB(c2ccccc2)N1	6 mM (≈ 1050 µg/mL)
CCCCB1OC(c2ccccc2)C(C)N1C (stereo not drawn)	0.53 mM (≈ 123 µg/mL)
CC1NB(c2ccccc2)OC1c1ccccc1 (stereo not drawn)	1.33 mM (≈ 315 µg/mL)
CCCCB1NC(C)C(c2ccccc2)O1 (stereo not drawn)	2.83 mM (≈ 614 µg/mL)
CC1C(c2ccccc2)OB(c2ccccc2)N1C (stereo not drawn)	1.55 mM (≈ 389 µg/mL)

The remaining lines, values ahead:

MIC	SMILES
6.75 mM (≈ 1150 µg/mL)	CCCC[B-]12OCC[NH+]1CCO2 (stereo not drawn)
6.75 mM (≈ 1290 µg/mL)	c1ccc([B-]23OCC[NH+]2CCO3)cc1 (stereo not drawn)
3.38 mM (≈ 524 µg/mL)	CCCCB1NC(C)(C)CO1
